Measured values taken from publication PMC4434909, “In vitro properties of designed antimicrobial peptides that exhibit potent antipneumococcal activity and produces synergism in combination with penicillin” (Scientific Reports, 2015).
Where “and” joins values, the source holds several entries; their conditions need not be identical. Equal values may be shown once. Read-outs that look alike come from different tables or passages of the source. Where no end group is shown, it is not given here.

How the values were obtained:
E. coli ATCC 25922 = type: cell-based
Description: (§1) All bacterial strains were obtained from Department of Medical Microbiology, University of Malaya. Clinical isolates were previously obtained from University of Malaya Medical Centre and maintained in the laboratory. Sheep blood agar was used for pneumococcal cultivation purpose. Nutrient agar was used for cultivating E. coli ATCC 25922, S. aureus ATCC 25923, and P. aeruginosa ATCC 15442, Acinetobacter baumanii ATCC 15308, and one clinical isolate for each MRSA, E. cloacae, Citrobacter spp., and K. pneumoniae. For antimicrobial testing, Mueller-Hinton agar (MHA) and cationically-adjusted MHB (CAMHB) were prepared according to the Clinical and Laboratory Standard Institute guidelines. MHA for S. pneumoniae was supplemented with 5% (v/v) defibrinated sheep blood and 5% laked horse blood for CAMHB. All bacterial cultures were stored in multiple vials in brain heart infusion broth supplemented with 10% (v/v) glycerol at −80°C to avoid repeated freeze-thawed cycles on the cells. All freeze-stocked strains were passaged twice prior to experimentation.
(§2) Procedures were performed to determine the MIC of peptides according to the CLSI guidelines[21] against 60 pneumococcal isolates which consisted of 20 isolates each for PRSP, PISP, and PSSP. Strains were grown for 18–24 hrs at 37°C under 5% CO2. Direct suspension of the colonies were made in CAMHB and adjusted to OD625 0.08–0.1 which corresponds to 1 ~ 2 × 10^8 CFU/ml followed by serial ten-fold dilutions to give 1 × 10^6 CFU/ml. Fifty microliters of bacterial suspension was then aliquoted to 96-well round bottom microtiter plates containing equal volume of serially diluted peptides to give final concentrations of peptides encompassing the range of 1.96–250 μg/ml. […] The plates were incubated for 18–24 hrs at 37°C under 5% CO2. MIC was read as the concentration of peptide producing complete inhibition on the visible growth of the test organism. Results were pooled from three independent experiments. MIC range was defined as the range of concentrations where the peptides produce detectable antimicrobial activity. Effective percentage (EP) was the proportion of pneumococcal isolates inhibited within the MIC range. Since the isolates tested were obtained prior to 2008 where major revision in antibiotic susceptibility breakpoints were introduced, thus the pneumococci were defined according to the PEN susceptibility breakpoint (prior 2008) which corresponds to the PEN (oral penicillin V) breakpoint of the revised criteria.
(§3) The broad spectrum antibacterial activity of the peptides against a panel of eight clinically important bacteria was also determined, this includes S. aureus ATCC 25923, E. coli ATCC 25922, P. aeruginosa ATCC 15442, A. baumanii ATCC 15308, and one clinical isolate each for MRSA, E. cloacae, Citrobacter spp., and K. pneumoniae.

Citrobacter spp. = type: cell-based; details: Gram-negative, clinical isolate; broth microdilution, CAMHB, peptides 1.96–250 μg/ml
Description: as §1, §2, §3

P. aeruginosa ATCC 15442 = type: cell-based
Description: as §1, §2, §3

[1] = system: multiple gram-positive and gram-negative bacteria; type: cell-based; details: range: DM3 against seven bacteria; DM4 and DM5 apart from higher MICs against E. cloaceae, K. pneumoniae, S. aureus
Description: as §1, §2, §3

S. aureus ATCC 25923 = type: cell-based
Description: as §1, §2, §3

MRSA = type: cell-based, methicillin-resistant S. aureus
Description: as §1, §2, §3

S. pneumoniae = type: cell-based, Streptococcus pneumoniae; details: for Overall EP: proportion of the 60 pneumococcal isolates inhibited within the MIC range
Description: as §1, §2

[2] = system: penicillin-intermediate S. pneumoniae (PISP); type: cell-based, Streptococcus pneumoniae; details: for MIC, PISP: MIC range over 20 PISP isolates, CLSI broth microdilution, CAMHB with 5% laked horse blood, 18–24 hrs 37°C 5% CO2, peptides 1.96–250 μg/ml, three independent experiments; for EP %, PISP: effective percentage: proportion of isolates inhibited within the MIC range
Description: as §1, §2

[3] = system: penicillin-susceptible S. pneumoniae (PSSP); type: cell-based, Streptococcus pneumoniae; details: for MIC, PSSP: MIC range over 20 PSSP isolates, CLSI broth microdilution, CAMHB with 5% laked horse blood, 18–24 hrs 37°C 5% CO2, peptides 1.96–250 μg/ml, three independent experiments; for EP %, PSSP: effective percentage: proportion of isolates inhibited within the MIC range
Description: as §1, §2

human erythrocytes = test: Hemolytic activity; type: cell-based; details: for Hmax: percentage hemolysis at the highest concentration tested (all peptides 250 μg/ml; PEN 4 μg/ml)
Procedure: Hemolytic assay was performed as described. Freshly drawn human erythrocytes were rinsed three times with PBS and resuspended in PBS to 4% (v/v). One hundred microliters of the suspension was added to 96-well microtiter plate containing equal volume of peptides to give final concentrations of peptides encompassing the range of 1.96–250 μg/ml. PBS and 0.1% (v/v) Triton-X 100 were used as 0% and 100% hemolytic control respectively. Plates were incubated at 37°C for 1 hr. Subsequently, the plate was centrifuged and the supernatant was transferred to a new plate. The release of hemoglobin in the supernatant was monitored at absorbance of 450 nm using Glomax Multidetection system (Promega, USA). Results were pooled from three independent experiments and expressed as mean ± SD. HC10 and HC50 were defined as the peptide concentrations causing 10% and 50% hemolysis on human erythrocytes, respectively. Hmax was the percentage hemolysis observed at the maximum concentration as defined throughout this study (all peptides 250 μg/ml, PEN 4 μg/ml).

A. baumanii ATCC 15308 = type: cell-based, Acinetobacter baumanii
Description: as §1, §2, §3

E. cloaceae = type: cell-based, E. cloacae; details: Gram-negative, clinical isolate; broth microdilution, CAMHB, peptides 1.96–250 μg/ml
Description: as §1, §2, §3

[4] = system: penicillin-resistant Streptococcus pneumoniae (PRSP); type: cell-based; details: for MIC, PRSP: MIC range over 20 PRSP isolates, CLSI broth microdilution, CAMHB with 5% laked horse blood, 18–24 hrs 37°C 5% CO2, peptides 1.96–250 μg/ml, three independent experiments; for EP %, PRSP: effective percentage: proportion of isolates inhibited within the MIC range
Description: as §1, §2

[5] = Gram-negative, broth microdilution, CAMHB, peptides 1.96–250 μg/ml
[6] = Gram-positive, broth microdilution, CAMHB, peptides 1.96–250 μg/ml
[7] = Gram-positive, clinical isolate, broth microdilution, CAMHB, peptides 1.96–250 μg/ml
[8] = concentration causing 10% hemolysis, 4% (v/v) erythrocytes in PBS, 37°C 1 hr, absorbance 450 nm, mean ± SD of three independent experiments
[9] = concentration causing 50% hemolysis, 4% (v/v) erythrocytes in PBS, 37°C 1 hr, absorbance 450 nm, three independent experiments
[10] = mean ± SD of three independent experiments

Row | Substance | MIC, E. coli ATCC 25922 (E. coli ATCC 25922; [5]) | MIC, Citrobacter spp. (Citrobacter spp.) | MIC, P. aeruginosa ATCC 15442 (P. aeruginosa ATCC 15442; [5]) | antibacterial MIC range over the bacterial panel [1] | Overall MIC (S. pneumoniae) | Overall EP (S. pneumoniae) | MIC, PISP [2] | EP %, PISP [2] | MIC, PSSP [3] | EP %, PSSP [3] | MIC, E. cloaceae (E. cloaceae) | MIC, PRSP [4] | EP %, PRSP [4] | MIC, E. coli ATCC 25922 (E. coli ATCC 25922; ATCC 25922) | MIC, P. aeruginosa ATCC 15442 (P. aeruginosa ATCC 15442; ATCC 15442) | MIC, S. aureus ATCC 25923 (S. aureus ATCC 25923; ATCC 25923) | MIC, MRSA (MRSA; methicillin-resistant) | HC10 (human erythrocytes) | HC50 (human erythrocytes; red cells of human, 1 h) | MIC, A. baumanii ATCC 15308 (A. baumanii ATCC 15308; ATCC 15308) | further results
1 | GLFDIWKKWRWRR-NH2 [DM4] | 62.5 µg/mL | 31.3 µg/mL | 31.3 µg/mL | 31.3 to 62.5 µg/mL | 15.63 to 125 µg/mL | 100.0% | 15.63 to 125 µg/mL | (100.0) % | 15.63 to 125 µg/mL | (100.0) % | 250 µg/mL | 31.3 to 125 µg/mL | (100.0) % |  |  |  |  |  |  |  | MIC, S. aureus ATCC 25923 (S. aureus ATCC 25923; [6]): 62.5 µg/mL; MIC, MRSA (MRSA; [7]): 62.5 µg/mL; HC10 (human erythrocytes; [8]): > 250 µg/mL; HC50 (human erythrocytes; [9]): >250 µg/mL; Hmax (human erythrocytes; [10]): < 1.0% and 0.6 ± 0.1%; MIC, A. baumanii ATCC 15308 (A. baumanii ATCC 15308; [5]): 31.3 µg/mL
2 | GLFDIWKKLRWRR-NH2 [DM5] |  | 31.3 µg/mL |  | 31.3 to 62.5 µg/mL | 15.63 to 125 µg/mL | 100.0% | 15.63 to 125 µg/mL | (100.0) % | 15.63 to 125 µg/mL | (100.0) % | 125 µg/mL | 31.3 to 125 µg/mL | (100.0) % | 31.3 µg/mL | 31.3 µg/mL | 125 µg/mL | 62.5 µg/mL | > 250 µg/mL | >250 µg/mL | 31.3 µg/mL | 
3 | GLFDIWAWWRWRR-NH2 [DM2] |  | 62.5 µg/mL |  |  | 7.81 to 250 µg/mL | 100.0% | 7.81 to 250 µg/mL | (100.0) % | 15.63 to 250 µg/mL | (100.0) % | >250 µg/mL | 15.63 to 250 µg/mL | (100.0) % | 250 µg/mL | >250 µg/mL | 31.3 µg/mL | 62.5 µg/mL | 114.3 µg/mL | >250 µg/mL | 31.3 µg/mL | 
4 | GLFDKWAWWRWRR-NH2 [DM1] | 62.5 µg/mL | 31.3 µg/mL | 125 µg/mL |  | 31.3 to 250 µg/mL | 100.0% | 31.3 to 125 µg/mL | (100.0) % | 62.5 to 250 µg/mL | (100.0) % | 125 µg/mL | 31.3 to 125 µg/mL | (100.0) % |  |  |  |  |  |  |  | MIC, S. aureus ATCC 25923 (S. aureus ATCC 25923; [6]): 125 µg/mL; MIC, MRSA (MRSA; [7]): 62.5 µg/mL; HC10 (human erythrocytes; [8]): > 250 µg/mL; HC50 (human erythrocytes; [9]): >250 µg/mL; Hmax (human erythrocytes; [10]): < 1.0% and 0.5 ± 0.1%; MIC, A. baumanii ATCC 15308 (A. baumanii ATCC 15308; [5]): 62.5 µg/mL
5 | GLFDIWKWWRWRR-NH2 [DM3] |  | 15.63 µg/mL |  | 7.81 to 62.5 µg/mL | 7.81 to 62.5 µg/mL | 100.0% | 7.81 to 62.5 µg/mL | (100.0) % | 7.81 to 62.5 µg/mL | (100.0) % | 31.3 µg/mL | 15.63 to 62.5 µg/mL | (100.0) % | 62.5 µg/mL | 125 µg/mL | 15.63 µg/mL | 7.81 µg/mL | 52.7 µg/mL | >250 µg/mL | 15.63 µg/mL | hemolysis at the effective MIC level against S. pneumoniae (human erythrocytes; red cells of human, 1 h): ≤ 15%
